For one experiment, the system named is SF-268. The experiment can be described thus: NCI60 cell line response to SA, SF-268. Particulars: SF-268, doubling time 33.1 hours. It is filed as cell-based, human.
For experiment [1], the system named is MPNST cell lines derived from the NPcis mouse. As to the kind of experiment: Cell morphology / actin, MPNST cell lines. The class given is cell-based. The protocol:
Cell Morphology Assays and Confocal Microscopy: To assay cytoskeleton morphology, KR158 cells, mouse primary astrocytes, KR158 clones expressing the NF1-GRD constructs, K14553 cells, and A549 were seeded to cover slips and allowed to reattach overnight. Cells were treated for 18 hours with either the indicated concentrations of SA, or the vehicle control DMSO. The cover slips were fixed in 3.7% paraformaldehyde, permeablized in 0.1% Triton-X100, and stained with Alexa Fluor 488-phalloidin (Invitrogen, Carlsbad, Calif., USA) to detect actin and cells were mounted in Prolong Antifade containing DAPI (Invitrogen) to stain nuclei. The cells were imaged on a LSM510 confocal microscope (Carl Zeiss Inc., Jena, Germany). For phospho-myosin light chain 2 (MLC) detection, cells were seeded to coverslips as described above. Cells were serum starved in 0.5% FBS and SA or DMSO vehicle control for 18 hours, and then pulsed with 10 ng/mL EGF (Invitrogen) for 5 min. […] Actin structures were monitored continuously over a 16 hr period using confocal microscopy equipped with a growth chamber (37° C., humidified atmosphere and 5% CO2). […]

Experiment [2] deals with sporadic MPNST STS26T cells. As to the kind of experiment: XTT cell proliferation assay, STS26T. It is filed as cell-based, human. On the procedure: XTT Cell Proliferation Assay: Cells were seeded into 96-well plates at a density of 2,000 cells/well and allowed to reattach overnight. Cells were treated with SA, synthetic analogs, camptothecin (NCI Chemotherapeutics Repository, Md., USA), or DMSO control at the indicated concentrations continuously for 48 hours followed by assay in the 96-well plate for relative viable cell number using the dye […] (XTT) and a Wallac-Victor 2 plate reader (Perkin-Elmer, Waltham, Mass., USA). Absorbance was determined at 450 nm with 650 nm as a reference reading. Primary astrocytes were additionally assayed at a 96 hour time point.
Cell lines and culture: Human MPNST cell lines (STS26T and T265) were obtained from the Pediatric Oncology Branch, NCI (Bethesda, Md., USA).

“Also recorded” adds a separate entry of the source.

For one compound, logGI50, actin cytoskeleton and inhibition of proliferation results are on record in patent US8686016B2, “Schweinfurthins and uses thereof” (The United States of America, as represented by the …, priority 2009, dated 2014).

In the experiment on SF-268, `CC(C)=CCC/C(C)=C/Cc1c(O)cc(/C=C/c2cc(O)c3c(c2)C[C@@H]2C(C)(C)[C@H](O)[C@H](O)C[C@@]2(C)O3)cc1O` [SA, Schweinfurthin A] had a logGI50 of −5.62. For the same compound, in experiment [1], the actin cytoskeleton entry is “loss of stress fibers”. The inhibition of proliferation result in experiment [2] was “much weaker inhibition of proliferation; also recorded: are not”.
